# Legend:
# Assay in all cases: radiometric GDP[…]mannose transfer, membrane fraction, organic-phase counting
# Assay type in all cases: biochemical
# Details in all cases: GDP[14C]mannose co-substrate, 10 mM MgCl2, 0.1% Nonidet P-40, pH 7.4, 30 °C, 5 min; 50 µL assay (amount, not concentration)
# [1] = biological target: T1, TrDPMS (DPMS from T. reesei) (Trichoderma reesei, UniProt G0R8U7)
# T1 construct: gene dpm1; native Dpm1/Dpm2/Dpm3 complex in the membrane fraction of T. reesei, not purified; with Dolichol phosphate-mannose biosynthesis regulatory protein; Dolichol-phosphate mannosyltransferase subunit 3
# T1 sequence (G0R8U7 1-243): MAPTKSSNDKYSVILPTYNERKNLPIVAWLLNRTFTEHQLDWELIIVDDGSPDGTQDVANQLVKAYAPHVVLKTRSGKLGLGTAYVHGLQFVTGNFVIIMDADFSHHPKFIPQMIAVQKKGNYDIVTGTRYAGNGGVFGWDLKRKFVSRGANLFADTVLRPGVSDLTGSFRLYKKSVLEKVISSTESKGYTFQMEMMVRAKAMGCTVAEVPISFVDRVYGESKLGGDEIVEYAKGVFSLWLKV
# T1 sequence (C6KF57 1-92 partner): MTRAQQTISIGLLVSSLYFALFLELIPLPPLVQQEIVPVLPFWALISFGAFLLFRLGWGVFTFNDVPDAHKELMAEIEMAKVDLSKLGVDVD
# T1 sequence (C6KF56 1-80 partner): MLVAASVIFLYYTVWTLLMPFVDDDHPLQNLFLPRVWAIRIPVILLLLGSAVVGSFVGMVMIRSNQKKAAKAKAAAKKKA
# [2] = biological target: T2, TrDPMS-1,3 (T. reesei Dpm1,3 expressed in S. cerevisiae) (Trichoderma reesei, UniProt G0R8U7)
# T2 construct: dpm1Tr (p415 GPD LEU) and dpm3Tr (pESC-URA) in S. cerevisiae dpm1dr∆ mutant; yeast membrane fraction; Dpm2 omitted; with Dolichol-phosphate mannosyltransferase subunit 3
# T2 sequence (G0R8U7 entry or part of it): as the sequence (G0R8U7 1-243) above
# T2 sequence (C6KF57 entry or part of it, further chain): as the sequence (C6KF57 1-92 partner) above
# [3] = biological target: T3, ScDPMS (DPMS from S. cerevisiae) (Saccharomyces cerevisiae, UniProt P14020)
# T3 construct: gene DPM1; native enzyme in yeast membrane fraction, not purified; Type I, exclusively Dpm1 subunit
# T3 sequence (P14020 2-267): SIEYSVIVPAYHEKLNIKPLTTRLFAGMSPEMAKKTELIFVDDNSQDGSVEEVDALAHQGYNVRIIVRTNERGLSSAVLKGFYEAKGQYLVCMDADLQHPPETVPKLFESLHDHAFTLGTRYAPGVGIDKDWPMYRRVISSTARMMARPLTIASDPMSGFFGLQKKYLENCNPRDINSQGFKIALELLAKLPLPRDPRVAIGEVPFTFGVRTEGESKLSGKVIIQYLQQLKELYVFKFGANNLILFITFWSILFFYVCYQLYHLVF
smiles,measurement,setting,value
CC(C)=CCC/C(C)=C/CC/C(C)=C/CC/C(C)=C\CC/C(C)=C\CC/C(C)=C\CC/C(C)=C\CC/C(C)=C\CC/C(C)=C\CC/C(C)=C\CCC(C)CCOP(=O)(O)O (stereo not drawn) [Dol-P11],T. reesei / Km,[1],3500 ng
same,S. cerevisiae / Km,[2],730 ng
same,S. cerevisiae / Km,[3],730 ng

# Reference: PMC6628320, “Poly-Saturated Dolichols from Filamentous Fungi Modulate Activity of Dolichol-Dependent Glycosyltransferase and Physical Properties of Membranes” (International Journal of Molecular Sciences, 2019)
